# Measurements: patent US7511074B2, “Tetrafluorobenzyl derivatives and pharmaceutical composition for preventing and treating acute and chronic neurodegenerative diseases in central nervous system containing the same” (AmKor Pharma, Inc., priority 2002, dated 2009)
# What was measured:
# [1] = tested on: ALS mice (G93A human SOD1 mutation); assay: Neuronal death in spinal cord of ALS transgenic mice (SOD1-G93A); assay type: in vivo, mouse
# Procedure: Bright field photomicrographs of spinal cord sections stained with eosin from amyotrophic lateral sclerosis (ALS) mice over expressing the mutant SOD1-G93A that received vehicle (A) or 2-Hydroxy-TTBA (B, 10 mg/kg/day through drinking water) for 8 weeks from the age of 2 months.
# Degenerating neurons from FIG. 7a. were analyzed by counting viable neurons after staining with eosin in the dorsal and ventral horn of spinal cord from ALS mice treated with a vehicle (Control) or 2-Hydroxy-TTBA, mean ±S.E.M (n=5 animals for each condition). *, Significant difference from the vehicle control, p<0.05 using the independent t-test.
# Transgenic mice with the G93A human SOD1 mutation (B6SJL-TgN(SOD1-G93A)1Gur), animal models of ALS (ALS mice), were obtained from Jackson Laboratories (ME, USA). 2-hydroxy-TTBA was administered to 2 month-old wild type and ALS transgenic mice through drinking water bottle (10 mg/kg per day) for 8 weeks. Animals were then euthanized and spinal cords processed for histological examination by staining with hematoxylin and eosin. Spinal motor neurons from ALS mice without being treated with 2-hydroxy-TTBA (control) underwent degeneration as evident by eosinophilic staining, which was reduced in ALS mice treated with 2-hydroxy-TTBA (FIG. 7a).
# The number of degenerating neurons was analyzed by counting eosinophilic neurons in ventral horn (VH) and dorsal horn (DH).
# [2] = tested on: Sprague-dawley rats, four-vessel occlusion; assay: CA1 neuronal cell death after transient forebrain ischemia; assay type: in vivo, rat; conditions: 50 mg/kg ip; 10 min four-vessel occlusion; analyzed 3 d later
# Procedure: Adult rats received transient global ischemia for 10 min, with intraperitoneal injections of vehicle (control) or 2-Hydroxy-TTBA (50 mg/kg) at 5 min after reperfusion. The number of degenerating neurons in the CA1 was analyzed 3 d later by counting viable neurons after staining with cresyl violet, mean ±S.E.M. *, Significant difference from the vehicle control, p<0.05 using the independent t-test.
# Male adult Sprague-dawley rats (250-300 g) were anesthetized with chloral hydrate and subjected to four-vessel occlusion model (occlusion of both common carotid arteries and vertebral arteries) as previously described [Pulsinelli and Brierley, stroke 10: 267-272 (1979)].
# Rats received four-vessel occlusion for 10 min followed by administration of saline (control) or 2-Hydroxy-TTBA (50 mg/kg, ip). Animals were euthanized 3 d later and processed for analysis of neuronal death in the CA1 field after staining with hematoxylin and eosin(mean ±SEM, N=12 rats/condition).
# [3] = tested on: Mouse cortical cell cultures; assay: FeCl2-induced free radical neurotoxicity in mixed cortical cell cultures (LDH assay); assay type: cell-based; conditions: continuous 50 μM FeCl2; LDH 24 hr later
# Procedure: (§1) Mouse cortical cell cultures (DIV 12-14) were exposed to continuously to 50 μM Fe^2+, alone or with inclusion of 0.1-100 μM 2-Hydroxy-TTBA (●) or trolox (◯), a membrane-permeable form of vitamin E). Neuronal death was analyzed 24 hr later by measuring levels of LDH released into the bathing medium, mean ±SEM (n=9-12 culture wells per condition), scaled to mean LDH efflux value 24 hr after sham wash (=0) and continuous exposure to 500 μM NMDA (=100). *, Significant difference from the vehicle control, p<0.05 using ANOVA and Student-Neuman-Keuls' test.
# as §1, with “alone (♦)” for “alone”, “1-30” for “0.1-100”, “2-Hydroxy-TTS (●), 2-Hydroxy-TTA (◯), 2-Chloro-TTP (▾), 2-Ethan-TTBA (∇), 2-Propan-TTBA (▪),” for “2-Hydroxy-TTBA (●)”, “2-Cyclohexan-TTBA (□).” for “trolox (◯), a membrane-permeable form of vitamin E).”
# (§2) For mixed neuron-glia culture, mouse cerebral cortices were removed from brains of the 14-16 day-old-fetal mice (E14-16), gently triturated and plated on 24 well plates (2×10^5 cells/plate) precoated with 100 μg/ml poly-D-lysine and 4 μg/ml laminine. Cultures were maintained at 37° C. in a humidified 5% CO2 atmosphere. Plating media consist of Eagles minimal essential media (MEM, Earles salts, supplied glutamine-free) supplemented with 5% horse serum, 5% fetal bovine serum, 26.5 mM bicarbonate, 2 mM glutamine, and 21 mM glucose.
# (§3) After 7-8 days in vitro (DIV 7-8), 10 μM cytosine arabinofuranoside (Ara-C) was included to halt overgrowth of glia. The drug treatment was carried on DIV 12-15 cortical cell culture. Overall neuronal cell injury was assessed by measuring amount of lactate dehydrogenase (LDH) released into the bathing medium 24 hr after neurotoxic insults as previously described [Koh and Choi, J Neurosci Methods 20:83-90, 1987].
# Mixed cortical cell cultures (DIV 13-15) were continuously exposed to 50 μM FeCl2, which produces hydroxyl radical via a Fenton reaction, alone or with inclusion of 2-Hydroxy-TTBA, 2-Hydroxy-TTA, 2-Hydroxy-TTS, 2-Chloro-TTP, 2-Ethan-TTBA, 2-Propan-TTBA, 2-Cyclohexan-TTBA or trolox (a vitamin E analogue) at indicated doses. Neuronal cell death was analyzed 24 hr later by LDH assay as described above. *, Significant difference from the vehicle control (FeCl2), p<0.05 using ANOVA and Student-Neuman-Keuls' test.
# [4] = tested on: Mouse cortical cell cultures; assay: SNP (sodium nitroprusside) cytotoxicity in mixed cortical cell cultures (LDH assay); assay type: cell-based; conditions: continuous 5 μM SNP; LDH 24 hr later
# Procedure: as §1, with “continuously 5” for “continuously to 50”, “μM sodium nitroprusside (SNP),” for “μM Fe^2+,”, “alone (●)” for “alone”, “of 0.1-10 mM aspirin (◯), 1-100 μM trolox (▾), or 0.1-10” for “of 0.1-100”, “2-Hydroxy-TTBA (∇).” for “2-Hydroxy-TTBA (●) or trolox (◯), a membrane-permeable form of vitamin E).”
# as §2, §3
# Mixed cortical cell cultures were continuously exposed to 5 μM SNP, a nitric oxide (NO) donor, alone or with inclusion of 0.1-10 μM 2-Hydroxy-TTBA, 1-10 μM trolox or 100-10,000 μM aspirin. Neuronal cell death was analyzed 24 hr later by LDH assay. *, Significant difference from the vehicle control (SNP), p<0.05 using ANOVA and Student-Neuman-Keuls' test.
compound,measurement,setting,value
"O=C(O)c1cc(NCc2c(F)c(F)c(C(F)(F)F)c(F)c2F)ccc1O [2-Hydroxy-TTBA, 2-hydroxy-5-(2,3,5,6-tetrafluoro-4-trifluoromethylbenzylamino)benzoic acid]",degeneration of spinal motor neurons (eosinophilic staining),[1]; 10 mg/kg per day in drinking water for 8 weeks from 2 months of age,reduced
same,degeneration of dorsal and ventral horn neurons (count of eosinophilic neurons),"[1]; 10 mg/kg per day in drinking water for 8 weeks, n=5 animals",significantly prevented degeneration
same,delayed neuronal cell death in the CA1 areas,[2],prevented delayed neuronal cell death
same,prevention of FeCl2-induced free radical neurotoxicity,[3],prevented FeCl2-induced free radical neurotoxicity in a dose-dependent manner
same,strength relative to trolox in preventing free radical neurotoxicity,[3],30 fold
same,effect on SNP toxicity,[4],completely blocked
same,strength relative to trolox in preventing NO toxicity,[4],100 fold
